Source: ChEMBL document CHEMBL1146256, “ATP-conjugated peptide inhibitors for calmodulin-dependent protein kinase II” (Bioorg Med Chem Lett, 2007)
Starred links: 1 amine or outer side, 2 acyl side, 3 side chain; linkers in the order of their positions; H or OH if unused. Non-standard residues stand in square brackets, D forms with d. Residues, ends and D or L forms follow the SMILES beside them. ξ: configuration not given here. *: point of attachment. X1 = Nc1ncnc2c1ncn2[C@@H]1O[C@H](COP(=O)(O)OP(=O)(O)OP(=O)(O)OC2CC(=O)N(CCOCCOCCOCCN3C(=O)CC(S[C@@H](N[*:1])C(=O)[*:2])C3=O)C2=O)[C@@H](O)[C@H]1O; Biotin = O=C1N[C@H]2[C@H](CS[C@H]2CCCCC(=O)*)N1; ξF = NC(Cc1ccccc1)C(=O)O

Assay: Inhibition of CaMK2
Parameters: species or system Homo sapiens

Compound	IC50 [nM]
H-KKKLRRQEAFDAL-OH	76
CC(C)C[C@H](NC(=O)[C@H](C)NC(=O)[C@H](CCCCN)NC(=O)[C@H](CCCCN)NC(=O)CCCC[C@@H]1SC[C@@H]2NC(=O)N[C@@H]21)C(=O)N[C@@H](CCCNC(=N)N)C(=O)N[C@@H](CCCNC(=N)N)C(=O)N[C@@H](CCC(N)=O)C(=O)N[C@@H](CCC(=O)O)C(=O)N[C@@H](C)C(=O)N[C@H](C(=O)N[C@@H](CC(=O)O)C(=O)N[C@@H](C)C(=O)N[C@@H](CC(C)C)C(=O)N[C@H](SC1CC(=O)N(CCOCCOCCOCCN2C(=O)CC(OP(=O)(O)OP(=O)(O)OP(=O)(O)OC[C@H]3O[C@@H](n4cnc5c(N)ncnc54)[C@H](O)[C@@H]3O)C2=O)C1=O)C(=O)O)C(C)C (some centres undefined) (Biotin-KKALRRQEAVDAL[X1]-OH)	305
H-KKALRRQEAGDAL-OH	4000
H-KKALRRQEAVDAL-OH	320
CC(C)C[C@H](NC(=O)[C@H](C)NC(=O)[C@H](CCCCN)NC(=O)[C@H](CCCCN)NC(=O)CCCC[C@@H]1SC[C@@H]2NC(=O)N[C@@H]21)C(=O)N[C@@H](CCCNC(=N)N)C(=O)N[C@@H](CCCNC(=N)N)C(=O)N[C@@H](CCC(N)=O)C(=O)N[C@@H](CCC(=O)O)C(=O)N[C@@H](C)C(=O)NCC(=O)N[C@@H](CC(=O)O)C(=O)N[C@@H](C)C(=O)N[C@@H](CC(C)C)C(=O)N[C@H](SC1CC(=O)N(CCOCCOCCOCCN2C(=O)CC(OP(=O)(O)OP(=O)(O)OP(=O)(O)OC[C@H]3O[C@@H](n4cnc5c(N)ncnc54)[C@H](O)[C@@H]3O)C2=O)C1=O)C(=O)O (some centres undefined) (Biotin-KKALRRQEAGDAL[X1]-OH)	18000
CC(C)C[C@H](NC(=O)[C@H](C)NC(=O)[C@H](CC(=O)O)NC(=O)C(Cc1ccccc1)NC(=O)[C@H](C)NC(=O)[C@H](CCC(=O)O)NC(=O)[C@H](CCC(N)=O)NC(=O)[C@H](CCCNC(=N)N)NC(=O)[C@H](CCCNC(=N)N)NC(=O)[C@H](CC(C)C)NC(=O)[C@H](CCCCN)NC(=O)[C@H](CCCCN)NC(=O)[C@H](CCCCN)NC(=O)CCCC[C@@H]1SC[C@@H]2NC(=O)N[C@@H]21)C(=O)N[C@H](SC1CC(=O)N(CCOCCOCCOCCN2C(=O)CC(OP(=O)(O)OP(=O)(O)OP(=O)(O)OC[C@H]3O[C@@H](n4cnc5c(N)ncnc54)[C@H](O)[C@@H]3O)C2=O)C1=O)C(=O)O (some centres undefined) (Biotin-KKKLRRQEA[ξF]DAL[X1]-OH)	181
CC(C)C[C@H](NC(=O)[C@H](C)NC(=O)[C@H](CC(=O)O)NC(=O)CNCC(=O)[C@H](CNC(=O)CCOP(=O)(O)OP(=O)(O)OP(=O)(O)OC[C@@H]1O[C@H](n2cnc3c(N)ncnc32)[C@@H](O)[C@H]1O)NC(=O)[C@H](CCC(=O)O)NC(=O)[C@H](CCC(N)=O)NC(=O)[C@H](CCCNC(=N)N)NC(=O)[C@H](CCCNC(=N)N)NC(=O)[C@H](CC(C)C)NC(=O)[C@H](C)NC(=O)[C@H](CCCCN)NC(=O)[C@H](CCCCN)NC(=O)CCCC[C@@H]1SC[C@@H]2NC(=O)N[C@@H]21)C(=O)O	1320
CC(C)C[C@H](NC(=O)[C@H](C)NC(=O)[C@H](CC(=O)O)NC(=O)[C@H](Cc1ccccc1)NCC(=O)[C@H](CNC(=O)CCOP(=O)(O)OP(=O)(O)OP(=O)(O)OC[C@@H]1O[C@H](n2cnc3c(N)ncnc32)[C@@H](O)[C@H]1O)NC(=O)[C@H](CCC(=O)O)NC(=O)[C@H](CCC(N)=O)NC(=O)[C@H](CCCNC(=N)N)NC(=O)[C@H](CCCNC(=N)N)NC(=O)[C@H](CC(C)C)NC(=O)[C@H](CCCCN)NC(=O)[C@H](CCCCN)NC(=O)[C@H](CCCCN)NC(=O)CCCC[C@@H]1SC[C@@H]2NC(=O)N[C@@H]21)C(=O)O	22
CC(C)C[C@H](NC(=O)[C@H](C)NC(=O)[C@H](CC(=O)O)NC(=O)[C@@H](NCC(=O)[C@H](CNC(=O)CCOP(=O)(O)OP(=O)(O)OP(=O)(O)OC[C@@H]1O[C@H](n2cnc3c(N)ncnc32)[C@@H](O)[C@H]1O)NC(=O)[C@H](CCC(=O)O)NC(=O)[C@H](CCC(N)=O)NC(=O)[C@H](CCCNC(=N)N)NC(=O)[C@H](CCCNC(=N)N)NC(=O)[C@H](CC(C)C)NC(=O)[C@H](C)NC(=O)[C@H](CCCCN)NC(=O)[C@H](CCCCN)NC(=O)CCCC[C@@H]1SC[C@@H]2NC(=O)N[C@@H]21)C(C)C)C(=O)O	67
